Reference: ChEMBL document CHEMBL6178018, “Design of an Oral STING Agonist through Intramolecular Hydrogen Bond Ring Mimicking to Achieve Complete Tumor Regression” (J Med Chem, 2025)
Blank lines part the entries; values can stand above or below the molecule they belong to. Active and inactive are the calls of the source. No cut-off for these calls is given here.

How the values were obtained:
[1] = molecular target: T1, Stimulator of interferon genes protein (Homo sapiens, UniProt Q86WV6); test: Binding affinity to wild type His-tagged STING (unknown origin) measured after 3 hrs incubation by HTRF assay
Target sequence in this assay (Q86WV6 whole entry): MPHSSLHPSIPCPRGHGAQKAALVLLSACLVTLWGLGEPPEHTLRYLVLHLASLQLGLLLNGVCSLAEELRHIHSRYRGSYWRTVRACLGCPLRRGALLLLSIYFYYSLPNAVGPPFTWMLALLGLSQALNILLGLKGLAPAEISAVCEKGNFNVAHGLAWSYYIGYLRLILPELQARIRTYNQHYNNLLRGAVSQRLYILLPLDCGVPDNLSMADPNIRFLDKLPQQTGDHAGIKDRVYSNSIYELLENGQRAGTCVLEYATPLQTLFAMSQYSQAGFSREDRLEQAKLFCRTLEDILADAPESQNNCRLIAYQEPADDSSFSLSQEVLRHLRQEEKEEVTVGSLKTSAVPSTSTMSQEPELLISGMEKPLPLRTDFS

[2] = molecular target: T1, Stimulator of interferon genes protein; test: Agonist activity at STING R232 mutant (unknown origin) expressed in human THP1-Dual cells assessed as fold change in stimulation activity measured after 24 hrs incubation by QUANTI-Luc4 based microplate reader; format: cell-based
Target sequence in this assay (Q86WV6 whole entry, looked up, change not shown): as the sequence (Q86WV6 whole entry) above

[3] = molecular target: T2, Interferon regulatory factor 3 (Homo sapiens) (UniProt Q14653); test: Induction of IRF3 phosphorylation in human THP1-Blue ISG cells at 13 to 50 uM measured after 3 hrs by Western blot analysis; format: cell-based; conditions: filed as agonist, dose 13-50 µM
T2 sequence (whole entry): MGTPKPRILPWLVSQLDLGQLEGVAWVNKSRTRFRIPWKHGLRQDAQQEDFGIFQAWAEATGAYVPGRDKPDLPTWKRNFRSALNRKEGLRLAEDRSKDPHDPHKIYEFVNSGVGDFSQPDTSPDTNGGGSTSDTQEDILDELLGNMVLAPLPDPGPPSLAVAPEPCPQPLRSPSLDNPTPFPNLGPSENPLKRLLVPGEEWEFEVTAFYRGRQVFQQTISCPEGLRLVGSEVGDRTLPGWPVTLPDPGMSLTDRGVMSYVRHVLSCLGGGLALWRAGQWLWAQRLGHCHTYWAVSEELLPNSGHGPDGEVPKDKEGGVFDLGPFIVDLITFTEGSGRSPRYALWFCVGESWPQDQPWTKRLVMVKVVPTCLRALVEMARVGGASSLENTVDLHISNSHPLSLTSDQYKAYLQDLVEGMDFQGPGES

THP-1 [4] = test: Induction of interferon response in STING knock out human THP-1 cells assessed as fold change in stimulation activity at 13 to 25 uM measured after 24 hrs incubation by QUANTI-Luc4 based microplate reader; format: functional, cell-based; conditions: dose 13-25 µM
THP-1 [5] = test: Induction of interferon secretion in human THP-1 cells assessed as IFN-beta level at 13 uM measured after 24 hrs by ELISA; format: functional, cell-based
[6] = molecular target: T1, Stimulator of interferon genes protein; test: Agonist activity at human STING HAQ variant in human THP1-Blue ISG cells assessed as fold change in stimulation activity measured after 24 hrs incubation by QUANTI-Blue based microplate reader; format: cell-based
Target sequence in this assay (Q86WV6 whole entry, looked up, change not shown): as the sequence (Q86WV6 whole entry) above

[7] = molecular target: T3, Stimulator of interferon genes protein (Mus musculus, UniProt Q3TBT3); test: Agonist activity at mouse STING expressed in human THP1-Dual cells assessed as fold change in stimulation activity measured after 24 hrs incubation by QUANTI-Luc4 based microplate reader; format: cell-based
T3 sequence (Q3TBT3 whole entry): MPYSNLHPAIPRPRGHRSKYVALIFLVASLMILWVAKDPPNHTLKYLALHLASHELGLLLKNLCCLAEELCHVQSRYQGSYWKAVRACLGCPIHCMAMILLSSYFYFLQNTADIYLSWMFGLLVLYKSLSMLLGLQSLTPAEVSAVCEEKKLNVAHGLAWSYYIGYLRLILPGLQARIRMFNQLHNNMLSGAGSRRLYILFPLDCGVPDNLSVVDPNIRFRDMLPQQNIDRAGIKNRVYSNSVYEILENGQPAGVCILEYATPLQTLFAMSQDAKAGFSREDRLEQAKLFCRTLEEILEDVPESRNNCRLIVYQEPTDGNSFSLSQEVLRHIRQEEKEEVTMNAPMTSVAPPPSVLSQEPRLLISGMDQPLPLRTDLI

THP1-Blue ISG = test: Induction of STING phosphorylation in human THP1-Blue ISG cells at 13 to 50 uM measured after 3 hrs by Western blot analysis; format: cell-based; conditions: filed as agonist, dose 13-50 µM
[8] = molecular target: T1, Stimulator of interferon genes protein; test: Agonist activity at human STING in human THP1-Blue ISG cells measured after 24 hrs incubation by QUANTI-Blue based microplate reader; format: cell-based
Target sequence in this assay (Q86WV6 whole entry): as the sequence (Q86WV6 whole entry) above

IC50 [1]: 24.1 µM | EC50 [2]: 12 µM | Activity [3]: Active | EC50 [6]: 5.1 µM | EC50 [7]: 11.9 µM
SMILES: CC[C@H](CNC(=O)c1sc2cc(OC)c(OC)cc2c1F)C(=O)O
Activity (THP-1 [4]): inactive | Activity (THP-1 [5]): Active | Activity (THP1-Blue ISG): Active

EC50 [6]: > 100 µM
SMILES: COc1cc2sc(C(=O)NCC(C)(C)C(=O)O)c(F)c2cc1OC

EC50 [6]: > 100 µM
SMILES: COc1cc2sc(C(=O)N[C@@H](C)CC(=O)O)c(F)c2cc1OC

EC50 [6]: > 100 µM
SMILES: COc1cc2sc(C(=O)NC(C)(C)CC(=O)O)c(F)c2cc1OC

EC50 [6]: 33 µM
SMILES: CONC(=O)CCNC(=O)c1sc2cc(OC)c(OC)cc2c1F

EC50 [6]: > 100 µM
SMILES: COc1cc2sc(C(=O)NCC(F)(F)C(=O)O)c(F)c2cc1Br

EC50 [6]: > 100 µM
SMILES: COc1ccc2c(F)c(C(=O)NCCC(=O)O)sc2c1

IC50 [1]: 24.6 µM | EC50 [2]: 17.2 µM | EC50 [6]: 4.8 µM | EC50 [7]: 15.7 µM
SMILES: CCC(CNC(=O)c1sc2cc(OC)c(OC)cc2c1F)C(=O)O (racemic)

EC50 [6]: > 100 µM
SMILES: COc1cc2sc(C(=O)NCC(F)(F)C(=O)O)c(F)c2cc1OC

IC50 [1]: 65.5 µM | EC50 [2]: 51.3 µM | EC50 [6]: 11.3 µM | EC50 [7]: 45.9 µM
SMILES: CC[C@@H](CNC(=O)c1sc2cc(OC)c(OC)cc2c1F)C(=O)O

EC50 [6]: > 100 µM
SMILES: CCC(CNC(=O)c1sc2cc(OC)c(OC(F)F)cc2c1F)C(=O)O (stereo not given)

IC50 [1]: 28.7 µM | EC50 [2]: 36.5 µM | EC50 [6]: 4.7 µM | EC50 [7]: 27.9 µM
SMILES: COc1cc2sc(C(=O)NC[C@@H](C)C(=O)O)c(F)c2cc1OC

EC50 [6]: > 100 µM
SMILES: C=Cc1cc2c(F)c(C(=O)NCCC(=O)O)sc2cc1OC

EC50 [6]: > 100 µM
SMILES: CCC(CNC(=O)c1sc2cc(OC)c(OC)c(F)c2c1F)C(=O)O (stereo not given)

SMILES: CCC(CNC(=O)c1[se]c2cc(OC)c(OC)cc2c1F)C(=O)O (stereo not given)
EC50 [2]: 13.3 µM | EC50 [6]: 3.8 µM | EC50 [7]: 12.5 µM

IC50 [1]: 31.2 µM | EC50 [2]: 18.4 µM | EC50 [6]: 3.7 µM | EC50 [7]: 22 µM
SMILES: COc1cc2sc(C(=O)NCC3(C(=O)O)CCC3)c(F)c2cc1OC

EC50 [6]: > 100 µM
SMILES: COc1cc2sc(C(=O)NCC(=O)O)c(F)c2cc1OC

IC50 [1]: > 100 µM | EC50 [8]: > 100 µM
SMILES: COc1cc2cc(C(=O)NCCC(=O)O)sc2cc1OC

EC50 [6]: > 100 µM
SMILES: COc1cc2sc(C(=O)N[C@@H](CC(=O)O)C(N)=O)c(F)c2cc1OC

EC50 [6]: > 100 µM
SMILES: COc1cc2sc(C(=O)NCCc3nnn[nH]3)c(F)c2cc1OC

EC50 [6]: > 100 µM
SMILES: COc1cc2sc(C(=O)NCCB(O)O)c(F)c2cc1OC

EC50 [6]: > 100 µM
SMILES: COc1cc2sc(C(=O)NCCC(N)=O)c(F)c2cc1OC

EC50 [6]: 54.6 µM
SMILES: COc1cc2sc(C(=O)NCCCC(=O)O)c(F)c2cc1OC
